Measurements from PubChem BioAssay AID1963448 (Molecular Pharmacology Branch, DTP, NCI, 2024).

Tested on: 616215-338-R-J1-PDC complex spheroid growth, % test/control
Experiment: Anticancer human tumor 616215-338-R-J1-PDC patient-derived colon adenocarcinoma cell line growth inhibition [Asc]
Settings: for IC50: curve of first compound; for viability, T/C: stronger effect = lower value
How it was run: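 Complex solid-tumor spheroids incorporating human endothelial and mesenchymal stem cells received single agents or combinations over half-log dilution ranges anchored to clinical Cmax.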

[1] = second compound 0.00316 µM, first compound 0.0316 µM
[2] = second compound 0.00316 µM, first compound 0.1 µM
[3] = second compound 0.00316 µM, first compound 0.316 µM
[4] = second compound 0.00316 µM, first compound 1 µM
[5] = second compound 0.00316 µM, first compound 3.16 µM
[6] = second compound 0.00316 µM, first compound 10 µM
[7] = second compound 0.01 µM, first compound 0.0316 µM
[8] = second compound 0.01 µM, first compound 0.1 µM
[9] = second compound 0.01 µM, first compound 0.316 µM
[10] = second compound 0.01 µM, first compound 1 µM
[11] = second compound 0.01 µM, first compound 3.16 µM
[12] = second compound 0.01 µM, first compound 10 µM
[13] = second compound 0.0316 µM, first compound 0.0316 µM
[14] = second compound 0.0316 µM, first compound 0.1 µM
[15] = second compound 0.0316 µM, first compound 0.316 µM
[16] = second compound 0.0316 µM, first compound 1 µM
[17] = second compound 0.0316 µM, first compound 3.16 µM
[18] = second compound 0.0316 µM, first compound 10 µM
[19] = second compound 0.1 µM, first compound 0.0316 µM
[20] = second compound 0.1 µM, first compound 0.1 µM
[21] = second compound 0.1 µM, first compound 0.316 µM
[22] = second compound 0.1 µM, first compound 1 µM
[23] = second compound 0.1 µM, first compound 3.16 µM
[24] = second compound 0.1 µM, first compound 10 µM
[25] = second compound 0.316 µM, first compound 0.0316 µM
[26] = second compound 0.316 µM, first compound 0.1 µM
[27] = second compound 0.316 µM, first compound 0.316 µM
[28] = second compound 0.316 µM, first compound 1 µM
[29] = second compound 0.316 µM, first compound 3.16 µM
[30] = second compound 0.316 µM, first compound 10 µM
[31] = second compound 1 µM, first compound 0.0316 µM
[32] = second compound 1 µM, first compound 0.1 µM
[33] = second compound 1 µM, first compound 0.316 µM
[34] = second compound 1 µM, first compound 1 µM
[35] = second compound 1 µM, first compound 3.16 µM
[36] = second compound 1 µM, first compound 10 µM
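Further: spheroids exposed to agents for seven days before readout.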
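Wherever viability, T/C is given: 100% = DMSO vehicle control viability.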

Structure (SMILES): C=CC(=O)N1CCN(c2nc(=O)n(-c3c(C)ccnc3C(C)C)c3nc(-c4c(O)cccc4F)c(F)cc23)C(C)C1 (centres undefined) + CNC(C)C(=O)NC1CN(S(=O)(=O)c2cccc(S(=O)(=O)N3CCC4CCC(C(=O)NC(c5ccccc5)c5ccccc5)N4C(=O)C(NC(=O)C(C)NC)C3)c2)CCC2CCC(C(=O)NC(c3ccccc3)c3ccccc3)N2C1=O
- IC50 (second compound 0.00316 µM): 4240 nM
- IC50 (second compound 0.01 µM): 2680 nM
- IC50 (second compound 0.0316 µM): 4240 nM
- IC50 (second compound 0.1 µM): 3320 nM
- IC50 (second compound 0.316 µM): 2220 nM
- IC50 (second compound 1 µM): 3250 nM
- viability, T/C [1]: 109%
- viability, T/C [2]: 99.2%
- viability, T/C [3]: 88%
- viability, T/C [4]: 78.2%
- viability, T/C [5]: 58%
- viability, T/C [6]: 29.4%
- viability, T/C [7]: 110%
- viability, T/C [8]: 93.2%
- viability, T/C [9]: 95.5%
- viability, T/C [10]: 66.7%
- viability, T/C [11]: 47.3%
- viability, T/C [12]: 27.8%
- viability, T/C [13]: 106%
- viability, T/C [14]: 101%
- viability, T/C [15]: 96%
- viability, T/C [16]: 76.9%
- viability, T/C [17]: 58.1%
- viability, T/C [18]: 29.2%
- viability, T/C [19]: 95.8%
- viability, T/C [20]: 101%
- viability, T/C [21]: 81.5%
- viability, T/C [22]: 81.1%
- viability, T/C [23]: 48.6%
- viability, T/C [24]: 28.8%
- viability, T/C [25]: 92.6%
- viability, T/C [26]: 105%
- viability, T/C [27]: 104%
- viability, T/C [28]: 61.8%
- viability, T/C [29]: 53%
- viability, T/C [30]: 36.4%
- viability, T/C [31]: 104%
- viability, T/C [32]: 100%
- viability, T/C [33]: 100%
- viability, T/C [34]: 68.6%
- viability, T/C [35]: 54.6%
- viability, T/C [36]: 28.9%

Structure (SMILES): C#Cc1c(F)ccc2cc(O)cc(-c3ncc4c(N5CC6CCC(C5)N6)nc(OCC56CCCN5CC(F)C6)nc4c3F)c12 (centres undefined) + CNC(C)C(=O)NC1CN(S(=O)(=O)c2cccc(S(=O)(=O)N3CCC4CCC(C(=O)NC(c5ccccc5)c5ccccc5)N4C(=O)C(NC(=O)C(C)NC)C3)c2)CCC2CCC(C(=O)NC(c3ccccc3)c3ccccc3)N2C1=O
- IC50 (second compound 0.00316 µM): 2280 nM
- IC50 (second compound 0.01 µM): 2490 nM
- IC50 (second compound 0.0316 µM): 3760 nM
- IC50 (second compound 0.1 µM): 2330 nM
- IC50 (second compound 0.316 µM): 2720 nM
- IC50 (second compound 1 µM): 2100 nM
- viability, T/C [1]: 94.8%
- viability, T/C [2]: 104%
- viability, T/C [3]: 95.6%
- viability, T/C [4]: 100%
- viability, T/C [5]: 30.6%
- viability, T/C [6]: 6.11%
- viability, T/C [7]: 101%
- viability, T/C [8]: 99.3%
- viability, T/C [9]: 104%
- viability, T/C [10]: 97.6%
- viability, T/C [11]: 37.4%
- viability, T/C [12]: 5.11%
- viability, T/C [13]: 100%
- viability, T/C [14]: 95.7%
- viability, T/C [15]: 99.9%
- viability, T/C [16]: 104%
- viability, T/C [17]: 57.1%
- viability, T/C [18]: 9.6%
- viability, T/C [19]: 90.9%
- viability, T/C [20]: 102%
- viability, T/C [21]: 105%
- viability, T/C [22]: 89.4%
- viability, T/C [23]: 35.7%
- viability, T/C [24]: 4.68%
- viability, T/C [25]: 98.7%
- viability, T/C [26]: 102%
- viability, T/C [27]: 109%
- viability, T/C [28]: 89.9%
- viability, T/C [29]: 44.2%
- viability, T/C [30]: 6.83%
- viability, T/C [31]: 106%
- viability, T/C [32]: 86%
- viability, T/C [33]: 102%
- viability, T/C [34]: 104%
- viability, T/C [35]: 22.4%
- viability, T/C [36]: 3.39%
